Results: patent US20060134719A1, “Novel serine protease” (priority 2002, published 2006)
*: point of attachment. AMC = Cc1cc(=O)oc2cc(N*)ccc12; Boc = CC(C)(C)OC(=O)*; OBn = c1ccc(CO*)cc1

Legend:
[1] = biological target: T1, purified protein solution (signal-FLAG-ARS-extracellular protein) (Homo sapiens, UniProt Q7Z410, INS90FVSSFQKTELEASCVGCSVLNYRDGNSSVLVHFQ); assay: Enzyme activity of purified recombinant protein using synthetic peptides; assay type: biochemical; conditions: substrate 200 μM or 400 μM, ammonium hydrogen carbonate buffer, 37° C. for one hour; versus buffer control
T1 construct: made in house; host or cells: HEK293-EBNA
T1 sequence (Q7Z410 with tags, fused parts or gaps INS90FVSSFQKTELEASCVGCSVLNYRDGNSSVLVHFQ): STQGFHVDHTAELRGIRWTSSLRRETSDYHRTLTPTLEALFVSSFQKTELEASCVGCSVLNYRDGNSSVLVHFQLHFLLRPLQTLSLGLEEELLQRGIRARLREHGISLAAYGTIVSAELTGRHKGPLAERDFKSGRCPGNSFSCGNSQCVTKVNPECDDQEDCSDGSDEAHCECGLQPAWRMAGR
T1 sequence (Q7Z410 with tags, fused parts or gaps): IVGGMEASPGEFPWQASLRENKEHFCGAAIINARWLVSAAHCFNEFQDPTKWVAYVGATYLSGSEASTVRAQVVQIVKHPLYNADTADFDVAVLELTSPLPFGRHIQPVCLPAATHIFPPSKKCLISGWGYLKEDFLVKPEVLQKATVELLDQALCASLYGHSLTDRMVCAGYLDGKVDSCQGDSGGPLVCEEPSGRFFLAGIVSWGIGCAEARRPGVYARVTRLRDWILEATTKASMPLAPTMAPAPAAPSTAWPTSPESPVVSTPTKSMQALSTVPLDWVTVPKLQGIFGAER
Procedure: Using a cell expressing the signal-FLAG-ARS-extracellular protein, a recombinant protein secreted into the liquid culture of the cell was extracted and purified. Specifically, the transfected HEK293EBNA cells were incubated by the same method as in Example 7 to about 80% confluence, from which the culture medium was then removed. Instead, a culture medium containing 4% serum was added, for further incubation under conditions of 37° C. and a carbon dioxide concentration of 5% for another 4 days. The culture supernatant was recovered 4 days later; filtered through a 0.22-μm filter (Zartor); and adsorbed on an ANTI-FLAG M2-AGAROSE AFFINITY GEL (Sigma) column equilibrated with TBS buffer by a routine method. Subsequently, about 50 ml of the TBS buffer was used for washing the column. Then, 6 ml of […] glycine hydrochloride solution of pH 2.2 was passed through the column to obtain each 1 ml fraction. To the separated fractions, 100 μl of 1 M Tris-HCl of pH 8 was immediately added to adjust the pH. The individual fractions thus obtained were confirmed by Western blotting using an antibody against the FLAG tag added to the N terminus (mouse anti-FLAG monoclonal antibody M2; Sigma). Specifically, the eluted fractions were electrophoresed on SDS/4% to 20% acrylamide gel (Daiichi Pure Chemicals Co., Ltd.) (under reducing conditions) and then transferred on PVDF membrane (Millipore) using a blotting apparatus. After adding Block Ace (DAINIPPON PHARMACEUTICAL CO., LTD.) for blocking to the transferred PVDF membrane, a biotinylated mouse anti-FLAG monoclonal antibody (M2; Sigma) and horseradish peroxidase-labeled streptoavidin (Amersham Pharmacia) were sequentially reacted. After reaction, it was confirmed that which eluted fractions contained the protein, using ECL Western blotting detection system (Amersham Pharmacia).
Using a synthetic peptides which have the C terminus labeled wit MCA (4-methyl-coumaryl-7-amide) by the same method as in Example 8, the cleavage activity of the enzyme purified in Example 10 was detected. Unless otherwise described, the method described in a paper (Yasuoka, S. et al., Am. J. Respir. Cell Mol Biol., Vol. 16, 300-308, 1997) was used. Specifically, using a synthetic peptides (Peptide Institute, Inc.) which have the C terminus labeled with MCA as substrates, the substrates were diluted with ammonium hydrogen carbonate buffer to become a final concentration of 200 μM or 400 μM in a 96-well plate. After the purified protein solution obtained in Example 10 or the ammonium hydrogen carbonate buffer as a control was added to the substrate solutions, the resulting mixtures were incubated at 37° C. for one hour. Subsequently, the fluorescence of AMC (7-amino-4-methyl-coumarin) released from the synthetic peptide by enzymatic cleavage was measured at a wavelength of 460 nm for measurement, using an excitation wavelength of 390 nm with a fluorescent plate reader (SAFIRE manufactured by TECAN). In FIG. 1, the open bar expresses buffer control, while the solid bar expresses the case of using purified protein solution. The first bar represents the case of using Boc-Glu(OBzl)-Ala-Arg-MCA as a substrate; the second bar represents the case of using Boc-Phe-Ser-Arg-MCA as a substrate; the third bar represents the case of using Boc-Leu-Ser-Thr-Arg-MCA as a substrate; the fourth bar represents the case of using Boc-Gln-Arg-Arg-MCA as a substrate; the fifth bar represents the case of using Suc-Ala-Ala-Pro-Phe-MCA as a substrate; the sixth bar represents the case of using Suc-Ala-Pro-Ala-MCA as a substrate; the seventh bar represents the case of using Boc-Glu-Lys-Lys-MCA as a substrate; the eighth bar represents the case of using Boc-Leu-Lys-Arg-MCA as a substrate; the ninth bar represents the case of using Boc-Leu-Gly-Arg-MCA as a substrate; and the tenth bar represents the case of using Boc-Asp(OBzl)-Pro-Arg-MCA as a substrate.

[2] = biological target: T2, enzyme solution treated with trypsin beads (purified signal-FLAG-ARS-extracellular protein) (Homo sapiens, UniProt Q7Z410, INS90FVSSFQKTELEASCVGCSVLNYRDGNSSVLVHFQ); assay: Substrate cleavage activity of purified protein solution treated with trypsin beads; assay type: biochemical; conditions: substrate 400 μM, ammonium hydrogen carbonate buffer, 37° C. for one hour
T2 construct: FLAG (N); made in house; host or cells: HEK293-EBNA
T2 sequence (Q7Z410 with tags, fused parts or gaps): T1 sequence (Q7Z410 with tags, fused parts or gaps)
T2 sequence (Q7Z410 with tags, fused parts or gaps INS90FVSSFQKTELEASCVGCSVLNYRDGNSSVLVHFQ): T1 sequence (Q7Z410 with tags, fused parts or gaps INS90FVSSFQKTELEASCVGCSVLNYRDGNSSVLVHFQ)
Procedure: By the same method as in Example 9, an enzyme solution treated with trypsin beads was obtained, using the purified protein solution. Then, the substrate cleavage activity of the enzyme solution was measured by the same method as in Example 8. Specifically, synthetic peptide substrates were diluted in ammonium hydrogen carbonate buffer to become a final concentration of 400 μM in a 96-well plate. After the enzyme solution described above was mixed into the resulting diluted substrates, the mixture were incubated at 37° C. for one hour. Subsequently, the fluorescence of AMC released from the synthetic peptide by enzymatic cleavage were measured.

cleavage of synthetic peptide by purified protein solution (fluorescence of released AMC) [1]	cleavage of synthetic peptide by enzyme solution treated with trypsin beads (fluorescence of released AMC) [2]	Substance
showed the cleavage activities	cleaved	Boc-Glu(OBn)-Ala-Arg-{AMC}
showed the cleavage activities	cleaved	Boc-Phe-Ser-Arg-{AMC}
showed the cleavage activities	cleaved	Boc-Gln-Arg-Arg-{AMC}
